Measurements from patent US9220740B2.

Key:
[1] = target: T1, ERβ (Homo sapiens, UniProt Q92731); settings: in the presence of ERβ
[2] = target: T1, ERβ; assay: Repression of TNF-α activation of TNF-RE tkLuc in U2OS cells with ERβ; type: cell-based; set-up: expressed in transfected cells
[3] = tested on: TNF-RE tkLuc; assay: Effect of antiestrogens on TNF-RE tkLuc (Example 2); type: cell-based, human; settings: for effect on the repression induced by E2: TNF-RE tkLuc; for activation of TNF-RE tkLuc: antiestrogens
[4] = target: T1, ERβ; assay: ERE-tk-Luc luciferase activation in U2OS cells cotransfected with human ERβ; type: cell-based; set-up: expressed in transfected cells; host or cells: U2OS (human osteosarcoma); settings: competition with the Astragalus extract
[5] = tested on: breast cancer; settings: cited from earlier work

T1 sequence (Q92731 whole entry): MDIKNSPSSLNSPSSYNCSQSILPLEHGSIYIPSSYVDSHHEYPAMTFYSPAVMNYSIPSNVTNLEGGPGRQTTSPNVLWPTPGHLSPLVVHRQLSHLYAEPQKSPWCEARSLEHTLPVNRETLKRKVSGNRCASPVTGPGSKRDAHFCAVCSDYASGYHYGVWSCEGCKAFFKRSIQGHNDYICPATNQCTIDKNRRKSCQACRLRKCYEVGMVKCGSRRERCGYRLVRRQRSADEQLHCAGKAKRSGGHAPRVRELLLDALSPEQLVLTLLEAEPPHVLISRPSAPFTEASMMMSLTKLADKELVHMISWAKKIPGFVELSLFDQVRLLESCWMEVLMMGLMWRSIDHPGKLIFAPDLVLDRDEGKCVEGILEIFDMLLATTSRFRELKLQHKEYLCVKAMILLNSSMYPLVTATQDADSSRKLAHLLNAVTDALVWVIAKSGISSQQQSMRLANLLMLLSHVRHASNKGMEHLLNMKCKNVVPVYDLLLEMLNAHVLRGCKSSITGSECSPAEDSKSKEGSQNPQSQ

C[C@]12CC[C@@H]3c4ccc(O)cc4CC[C@H]3[C@@H]1CC[C@@H]2O [E2, estradiol]
repression of TNF-α activation of TNF-RE tkLuc [1]: 60-80%
repression of TNF-α activation of TNF-RE [2]: 100%

C[C@]12CC[C@@H]3c4ccc(O)cc4C[C@@H](CCCCCCCCC[S+]([O-])CCCC(F)(F)C(F)(F)F)[C@H]3[C@@H]1CC[C@@H]2O (stereo partly drawn) [ICI 182, 780]
effect on the repression induced by E2 [3]: abolished
activation of TNF-RE tkLuc [3]: 2 fold

O=C(c1ccc(OCCN2CCCCC2)cc1)c1c(-c2ccc(O)cc2)sc2cc(O)ccc12 [raloxifene]
effect on the repression induced by E2 [3]: abolished
activation of TNF-RE tkLuc [3]: 2 fold
effect on the extract's stimulatory effect on the ERE with ERβ (FIG. 6) [4]: inhibited

CC/C(=C(\c1ccccc1)c1ccc(OCCN(C)C)cc1)c1ccccc1 [tamoxifen]
effect on the repression induced by E2 [3]: abolished
activation of TNF-RE tkLuc [3]: 2 fold
reduction of the risk of primary invasive breast cancer ([5]; BCPT, women at high risk for breast cancer): 49%
reduction of the risk of recurrences ([5]; five years of therapy, women with estrogen receptor-positive breast cancer): 42%
reduction of mortality from breast cancer ([5]; five years of therapy): 22%
